Measurements from patent publication US10294253B2, “Siloxane-containing phospholipids, compositions and uses thereof” (priority 2016, dated 2019).
Where “and” joins values, the source holds several entries; their conditions need not be identical. Equal entries are not always repeated. Where two headings read alike, the source gives them in different places. Marks after values point to notes of the source that are not given here.

Experiments:
[1] = Dynamic light scattering (DLS) of liposome suspensions; type: physicochemical; details: for Dia. (vesicle diameter, most abundant population) / Rel. pop. (most abundant population) / Dia. (vesicle diameter, second population) / Rel. pop. (second population): aqueous suspension; for Dia. (vesicle diameter, most abundant population): POPC with 5 mol % POPG extruded through 100 nm membrane, SiPC not extruded; for Rel. pop. (most abundant population): first population; for polydispersity: most abundant population, liposomes not extruded
Method: POPC ULVs contain 5 mol % of 1-palmitoyl-2-oleoyl-sn-3-glcyercophosphoglycerol (POPG) and were extruded through a 100 nm polycarbonate membrane. SiPC suspensions were not extruded.
(§1) SiPCs were prepared as described above in Example 1. Aqueous dispersions of SiPCs were prepared by five freeze-thaw cycles to give opaque suspensions of vesicles suitable for Small-angle X-ray scattering (SAXS) analysis. Dispersion particle size was determined by dynamic light scattering (DLS) with a Nano Zetasizer ZS90 (Malvern Instruments, Worcestershire, U.K.).
(§2) 1-Palmitoyl-2-oleoyl-sn-3-glycercophosphocholine (POPC) and 1-palmitoyl-2-oleoyl-sn-3-glcyercophosphoglycerol (POPG) were purchased from Avanti Polar Lipids (Alabaster, Ala.) and used as received. POPC and 5 mol % POPG were co-dissolved in a chloroform:methanol (3:1) mixture. POPC was doped with 5 mol % POPG, to minimize pauci-lamellar vesicle contamination. Solvent was removed under a gentle stream of dry nitrogen gas then was put under vacuum for 8 hours. POPC:POPG film was hydrated with ultrapure water to a concentration of ˜30 mg/mL. ULVs were prepared using a manual miniextruder (Avanti Polar Lipids, Alabaster, Ala.), assembled with a 100 nm pore-diameter polycarbonate filter. The lipid suspension was passed through the filter 31 times. SAXS data were collected at the P12 BioSAXS beamline at the storage ring PETRA III (synchrotron DESY, Hamburg)^26 at a temperature of 20° C. SAXS data were visualized, averaged and the background was subtracted using ATSAS^27 and modelled using the method of Pabst et al.^28 The data was fit utilizing a standard non-linear least-squares fitting (NLSF) scheme within Origin (OriginLab, USA). Vesicle size was determined by dynamic light scattering (DLS) with a Nano Zetasizer ZS90 (Malvern Instruments, Worcestershire, U.K.)
The diameter standard deviation (a) for the vesicles (most abundant population) was below 20% of the diameter for liposomes of 1,2-SiPC and 1,3-SiPC, thus implying very low polydispersities of 0.16 and 0.19 respectively.

[2] = Small-angle X-ray scattering (SAXS) of vesicle suspensions, 3-Gaussian electron density model; type: physicochemical; details: for derived lipid volume / derived lipid volume relative to the volume from the atomic covalent radii: 3-Gaussian model; for ρC (fit parameter, hydrocarbon chain electron density relative to water) / zH (fit parameter, position of headgroup Gaussian) / σC (fit parameter, standard deviation of hydrocarbon Gaussian) / σH (fit parameter, standard deviation of headgroup Gaussian): 20° C, POPC ULVs with 5 mol % POPG; for ρC (fit parameter, hydrocarbon chain electron density relative to water): extruded 100 nm, SiPC freeze-thaw; for ρC (fit parameter, hydrocarbon chain electron density relative to water) / SAXS curve: bilayer-bilayer structure factor (Bragg peak), lamellarity: not extruded; for zH (fit parameter, position of headgroup Gaussian) / σC (fit parameter, standard deviation of hydrocarbon Gaussian) / σH (fit parameter, standard deviation of headgroup Gaussian): extruded, SiPC not extruded; for SAXS curve: bilayer-bilayer structure factor (Bragg peak), lamellarity: freeze-thaw liposomes
Method: as §1, §2
SAXS is sensitive to the presence of multilamellar vesicles (MLVs) and is used to evaluate the presence of MLVs. Shown in FIG. 2 are SAXS data for an about 40 mM POPC vesicle suspension in water as 100 nm ULV (black) and MLVs (gray). For MLVs, density correlations between the stacked bilayers give rise to a bilayer-bilayer structure factor also known as Bragg Peaks at a length scale corresponding to integer multiples of the lamellar repeat distance (e.g., the first Bragg order at q˜0.1 Å^−1, corresponding to a lamellar repeat distance of ˜63 Å).
The scattering regime where bilayer structure (as opposed to vesicle sphericity) dominates the form factor is of most interest as information about vesicle size is obtained from the DLS. The scattered intensity of a dilute vesicle suspension is given by:
The functional model chosen to describe the electron density of the siloxane phospholipids is the three Gaussian model as outlined by Pabst et al. (2000).^28 In this model, the electron distribution is the summation of the headgroups, described by a single Gaussian (in total 2, one for each leaflet of the bilayer) and a Gaussian representing the hydrocarbon chains, Eqn 2.
The position of the Gaussian peak is at zi where i=H or C and zC=0, with a standard deviation of σi. For simplicity, ρH−ρw and ρC−ρw are referred to herein as ρH and ρC respectively. The form factor of this electron density model can then be calculated analytically by applying Eqn 3: F(q)=∫ρ(z)exp(iqz)dz (3) which yields:
Only the cosine terms remain due to the centrosymmetric nature of a single component lipid bilayer. A benefit of this method is that structural parameters can be derived from simple geometric relationships, without the need of volumetric data. Typically area per lipid AL is one of the more desirable structural parameters to be extracted from the data. To begin, the transverse structure of the bilayer is derived (along the bilayer normal), such as the hydrocarbon length (dC) and the headgroup thickness (dH). Simply, dH can be estimated from the full width at half maximum (FWHM) of the Gaussian describing the headgroups. Using dH, dC can be determined as: […]

[3] = fixed using experimentally determined volume, cited from earlier work; for ρH (fit parameter, headgroup electron density relative to water): 20° C
[4] = Langmuir isotherms of phospholipid monolayers; type: physicochemical; details: 21.5° C
Excerpt: The interfacial phase behaviour of lipids and phospholipids is an important area of study. Data from Langmuir isotherms can give insight into packing behaviour and collapse mechanisms of phospholipid monolayers. FIG. 1 presents the Langmuir isotherms for 1,2-SiPC, 1,3-SiPC, 1,2-dipalmitoyl-sn-3-phosphocholine (DPPC), and 1-palmitoyl-2-oleoyl-sn-3-phosphocholine (POPC). DPPC and POPC are biologically relevant lipids that are commonly used as model systems in the study of membrane topology. These two lipids differ in the degree of unsaturation with POPC containing a single unit of unsaturation in the oleic acid FA chain. […] The surface area at the collapse of 1,2-SiPC was approximately 70 Å^2 and that for 1,3-SiPC was 87 Å^2. Both of these values are larger than those observed for DPPC and POPC.
While not wishing to be bound by theory, the larger size of the siloxane tails strongly affects the mean molecular area of the lipid as well as the lipid area at monolayer collapse. Furthermore, the rotational freedom of the siloxane unit leads to behaviour similar to that for unsaturated phospholipids such as POPC.

[5] = literature SDP model; cited from earlier work
[6] = literature value; cited from earlier work
[7] = geometrically derived from SAXS fit

SMILES	Dia. (vesicle diameter, most abundant population) [1] [nm]	Rel. pop. (most abundant population) [1] [%]	Dia. (vesicle diameter, second population) [1] [nm]	Rel. pop. (second population) [1] [%]	polydispersity [1]	derived lipid volume [2] [Å^3]	derived lipid volume relative to the volume from the atomic covalent radii [2] [factor]	ρC (fit parameter, hydrocarbon chain electron density relative to water) [2] [e/Å^3]	zH (fit parameter, position of headgroup Gaussian) [2] [Å]	σC (fit parameter, standard deviation of hydrocarbon Gaussian) [2] [Å]	σH (fit parameter, standard deviation of headgroup Gaussian) [2] [Å]	SAXS curve: bilayer-bilayer structure factor (Bragg peak), lamellarity [2]	AL (area per lipid) [2, 7]	VC (hydrocarbon volume) [2, 7] [Å^3]	dB (bilayer thickness) [2, 7]	dC (hydrocarbon length) [2, 7]	dH (headgroup thickness) [2, 7] [Å]	dHH (headgroup-headgroup distance) [2, 7]	ρH (fit parameter, headgroup electron density relative to water) [3]	VH (PC headgroup volume) [3]	also measured
C[N+](C)(C)CCOP(=O)([O-])OCC(COC(=O)CCCCCCCCC[Si](C)(C)O[Si](C)(C)O[Si](C)(C)C)OC(=O)CCCCCCCCC[Si](C)(C)O[Si](C)(C)O[Si](C)(C)C (racemic) [1,2-SiPC]	193.7	79	949.8	21	0.16	1574	7	−0.106 ± 0.002	18.2 ± 0.05	14.1 ± 0.2	4.6 ± 0.1	without the presence of a bilayer-bilayer structure factor (Bragg Peak)	69 ± 2 Å^2	1243 ± 42	45.5 ± 0.3 Å	9.9 ± 0.5 Å	9.1 ± 0.3	36.3 ± 0.1 Å	0.1609^a e/Å^3	331^a Å^3	surface area at the collapse of the monolayer [4]: approximately 70 Å^2
C[N+](C)(C)CCOP(=O)([O-])OC(COC(=O)CCCCCCCCC[Si](C)(C)O[Si](C)(C)O[Si](C)(C)C)COC(=O)CCCCCCCCC[Si](C)(C)O[Si](C)(C)O[Si](C)(C)C [1,3-SiPC]	123.4	89	684.9	11	0.19	1577	7	−0.101 ± 0.003	17.6 ± 0.1	13.3 ± 0.3	4.3 ± 0.2	without the presence of a bilayer-bilayer structure factor (Bragg Peak)	72 ± 4 Å^2	1246 ± 81	43.9 ± 0.4 Å	13.2 ± 0.2 Å	8.6 ± 0.5	35.3 ± 0.1 Å	0.1609^a e/Å^3	331^a Å^3	surface area at the collapse of the monolayer [4]: 87 Å^2
CCCCCCCC/C=C\CCCCCCCC(=O)O[C@H](COC(=O)CCCCCCCCCCCCCCC)COP(=O)([O-])OCC[N+](C)(C)C [POPC, 1-palmitoyl-2-oleoyl-sn-3-phosphocholine, reference compound]	98.1	100						−0.152 ± 0.002	18.16 ± 0.08	6.9 ± 0.2	3.77 ± 0.06		58.9 ± 2^ Å^2	961 ± 27	43.7 Å and 43.7 ± 0.2 Å	14.4 Å and 14.4 ± 0.1 Å	7.5 ± 0.2	36.3 Å and 36.3 ± 0.1 Å	0.1609^a e/Å^3	331^a Å^3	AL, SDP model derived [5]: 62.7±1 Å; dB (bilayer thickness), SDP analysis [5]: 39.8 Å; dC (hydrocarbon length), SDP analysis [5]: 14.6 Å; dHH (headgroup-headgroup distance), SDP analysis [5]: 37.4 Å; lamellar repeat distance ([2]; about 40 mM POPC MLVs in water, first Bragg order at q~0.1 Å^-1): ~63 Å; derived AL (area per lipid) [2, 7]: 58.9±2 Å
CC(C)CCCC(C)CCCC(C)CCCC(C)CC(=O)OC[C@H](COP(=O)([O-])OCC[N+](C)(C)C)OC(=O)CC(C)CCCC(C)CCCC(C)CCCC(C)C (stereo partly drawn) [diPhyPC, 1,2-diphytanoyl-sn-glycero-3-phosphatidylcholine]																					AL (area per lipid) [6]: 78 Å^2
